Results as given in PubChem BioAssay (NCI).
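Growth conditions: 96-well plates. Treatment: test compound, 48 hours, 5 concentrations. Analysis: linear interpolation between bracketing concentrations; unreached endpoints set to highest concentration. Definition used: TGI = concentration required for complete inhibition of growth.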

Columns and labels:
Test in all cases: inhibition of tumour cell growth, NCI panel, 48 h
786-0 renal = tested on: 786-0 renal
CCRF-CEM leukemia = tested on: CCRF-CEM leukemia
COLO 205 colon = tested on: COLO 205 colon
EKVX NSCLC = tested on: EKVX NSCLC
HCC-2998 colon = tested on: HCC-2998 colon
HL-60(TB) leukemia = tested on: HL-60(TB) leukemia
HOP-62 NSCLC = tested on: HOP-62 NSCLC
HT29 colon = tested on: HT29 colon
KM12 colon = tested on: KM12 colon
MDA-MB-435 = tested on: MDA-MB-435
MDA-N = tested on: MDA-N
MOLT-4 leukemia = tested on: MOLT-4 leukemia
NCI-H23 lung = tested on: NCI-H23 lung
PC-3 prostate = tested on: PC-3 prostate
RPMI-8226 leukemia = tested on: RPMI-8226 leukemia
RXF 393 renal = tested on: RXF 393 renal
SF-268 CNS = tested on: SF-268 CNS
SK-OV-3 ovarian = tested on: SK-OV-3 ovarian
SN12C renal = tested on: SN12C renal
UACC-257 melanoma = tested on: UACC-257 melanoma

`CC/C(Cl)=N\OC(=O)Nc1ccc(OC)c(C)c1` was tested, and the TGI (786-0 renal) was 36.8 µM, the TGI (CCRF-CEM leukemia) was greater than 38.8 µM and the TGI (COLO 205 colon) was 31.4 µM. The TGI (EKVX NSCLC) was 10.1 µM, the TGI (HCC-2998 colon) was 43.2 µM and the TGI (HL-60(TB) leukemia) was greater than 44.5 µM. It also gave a TGI (HOP-62 NSCLC) greater than 82.5 µM, a TGI (HT29 colon) of 41.2 µM and a TGI (KM12 colon) greater than 60 µM. For the same compound, the TGI (MDA-MB-435) was greater than 100 µM, the TGI (MDA-N) was 41 µM and the TGI (MOLT-4 leukemia) was 47 µM. The TGI (NCI-H23 lung) was 36.5 µM, the TGI (PC-3 prostate) was greater than 92.6 µM and the TGI (RPMI-8226 leukemia) was greater than 55.8 µM. For the same compound, the TGI (RXF 393 renal) was 31 µM, the TGI (SF-268 CNS) was greater than 77.1 µM and the TGI (SK-OV-3 ovarian) was greater than 100 µM. It also gave a TGI (SN12C renal) of 32.4 µM and a TGI (UACC-257 melanoma) of 37 µM.

`O=C1CCC2c3ccccc3NCN12` (stereo not drawn) was tested, and the TGI (786-0 renal) was greater than 100 µM, the TGI (CCRF-CEM leukemia) was greater than 100 µM and the TGI (COLO 205 colon) was greater than 100 µM. For the same compound, the TGI (EKVX NSCLC) was greater than 100 µM, the TGI (HCC-2998 colon) was greater than 100 µM and the TGI (HL-60(TB) leukemia) was greater than 100 µM. For the same compound, the TGI (HOP-62 NSCLC) was greater than 100 µM, the TGI (HT29 colon) was greater than 100 µM and the TGI (KM12 colon) was greater than 100 µM. It also gave a TGI (MDA-MB-435) greater than 100 µM, a TGI (MDA-N) greater than 100 µM and a TGI (MOLT-4 leukemia) greater than 100 µM. It also gave a TGI (NCI-H23 lung) greater than 100 µM, a TGI (PC-3 prostate) greater than 100 µM and a TGI (RPMI-8226 leukemia) greater than 100 µM. The TGI (RXF 393 renal) was greater than 100 µM, the TGI (SF-268 CNS) was greater than 100 µM and the TGI (SK-OV-3 ovarian) was greater than 100 µM. For the same compound, the TGI (SN12C renal) was greater than 100 µM and the TGI (UACC-257 melanoma) was greater than 100 µM.

Work on `CC(=O)C1C(=O)C(=O)N(c2ccc([N+](=O)[O-])cc2)C1=O` (stereo not drawn) yielded a TGI (786-0 renal) greater than 100 µM, a TGI (CCRF-CEM leukemia) greater than 100 µM and a TGI (COLO 205 colon) greater than 100 µM. The TGI (EKVX NSCLC) was greater than 100 µM, the TGI (HCC-2998 colon) was greater than 100 µM and the TGI (HL-60(TB) leukemia) was greater than 100 µM. For the same compound, the TGI (HOP-62 NSCLC) was greater than 100 µM, the TGI (HT29 colon) was greater than 100 µM and the TGI (KM12 colon) was greater than 100 µM. It also gave a TGI (MDA-MB-435) greater than 100 µM, a TGI (MDA-N) greater than 100 µM and a TGI (MOLT-4 leukemia) greater than 100 µM. It also gave a TGI (NCI-H23 lung) greater than 100 µM, a TGI (PC-3 prostate) greater than 100 µM and a TGI (RXF 393 renal) greater than 100 µM. It also gave a TGI (SF-268 CNS) greater than 100 µM, a TGI (SK-OV-3 ovarian) greater than 100 µM and a TGI (SN12C renal) greater than 100 µM. It also gave a TGI (UACC-257 melanoma) greater than 100 µM.

Work on `CCOC(=O)CCC(NC(=O)c1ccc(Oc2nc3c(N)cc(C(F)(F)F)cc3nc2-c2ccccc2)cc1)C(=O)OCC` (stereo not drawn) yielded a TGI (786-0 renal) greater than 22 µM, a TGI (CCRF-CEM leukemia) greater than 100 µM and a TGI (COLO 205 colon) greater than 100 µM. It also gave a TGI (EKVX NSCLC) greater than 100 µM, a TGI (HCC-2998 colon) greater than 100 µM and a TGI (HL-60(TB) leukemia) greater than 100 µM. For the same compound, the TGI (HOP-62 NSCLC) was 28.5 µM, the TGI (HT29 colon) was greater than 100 µM and the TGI (KM12 colon) was greater than 100 µM. It also gave a TGI (MDA-MB-435) greater than 100 µM, a TGI (MDA-N) greater than 100 µM and a TGI (MOLT-4 leukemia) greater than 100 µM. The TGI (NCI-H23 lung) was greater than 59.3 µM, the TGI (PC-3 prostate) was greater than 79.4 µM and the TGI (RPMI-8226 leukemia) was greater than 100 µM. It also gave a TGI (RXF 393 renal) of 47.7 µM, a TGI (SF-268 CNS) greater than 71.2 µM and a TGI (SK-OV-3 ovarian) greater than 58.6 µM. For the same compound, the TGI (SN12C renal) was greater than 100 µM and the TGI (UACC-257 melanoma) was greater than 31.6 µM.

`CC(NC1=CC(=O)c2cccnc2C1=O)C(O)c1ccccc1` (stereo not drawn) was tested, and the TGI (786-0 renal) was 12.2 µM, the TGI (CCRF-CEM leukemia) was 25.5 µM and the TGI (COLO 205 colon) was 3.42 µM. For the same compound, the TGI (EKVX NSCLC) was 20.1 µM, the TGI (HCC-2998 colon) was 10.8 µM and the TGI (HL-60(TB) leukemia) was 6.69 µM. It also gave a TGI (HOP-62 NSCLC) of 3.03 µM, a TGI (HT29 colon) of 9.45 µM and a TGI (KM12 colon) of 27.8 µM. For the same compound, the TGI (MDA-MB-435) was 3.13 µM, the TGI (MDA-N) was 1.3 µM and the TGI (MOLT-4 leukemia) was 22.4 µM. It also gave a TGI (NCI-H23 lung) of 3.01 µM, a TGI (PC-3 prostate) of 10.6 µM and a TGI (RPMI-8226 leukemia) of 6.7 µM. For the same compound, the TGI (RXF 393 renal) was 16.5 µM, the TGI (SF-268 CNS) was 20.8 µM and the TGI (SK-OV-3 ovarian) was 23.4 µM. For the same compound, the TGI (SN12C renal) was 3.04 µM and the TGI (UACC-257 melanoma) was 2.84 µM.

With `C/C(=N\Nc1nc2ccccc2[nH]1)c1cnccn1` the TGI (786-0 renal) was greater than 100 µM, the TGI (CCRF-CEM leukemia) was 6.75 µM and the TGI (COLO 205 colon) was greater than 40.2 µM. For the same compound, the TGI (EKVX NSCLC) was greater than 34.4 µM, the TGI (HCC-2998 colon) was 59.8 µM and the TGI (HL-60(TB) leukemia) was 0.429 µM. For the same compound, the TGI (HOP-62 NSCLC) was greater than 100 µM, the TGI (HT29 colon) was greater than 48 µM and the TGI (KM12 colon) was 22.4 µM. It also gave a TGI (MDA-MB-435) greater than 29.6 µM, a TGI (MDA-N) greater than 100 µM and a TGI (MOLT-4 leukemia) greater than 100 µM. For the same compound, the TGI (NCI-H23 lung) was greater than 30.7 µM, the TGI (PC-3 prostate) was greater than 88.4 µM and the TGI (RXF 393 renal) was 4.81 µM. For the same compound, the TGI (SF-268 CNS) was greater than 100 µM, the TGI (SK-OV-3 ovarian) was greater than 100 µM and the TGI (SN12C renal) was 12.4 µM. The TGI (UACC-257 melanoma) was greater than 31 µM.
